How the values were obtained:
[1] = test system: Green Peach Aphid (Myzus Persicae); test: Insecticidal test for green peach aphid in foliar spray assay (col. MYZUPE); type: in vivo; conditions: Myzus persicae, 72 h, green peach aphid, read-out: MYZUPE 200 ppm (Corrected % Control, rating)
How it was run: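 Corrected % control derives from microscope counts of live aphids per plant, treated against diluent-only checks, 3 days after foliar spraying at ~25 °C and 40% RH. Test solution was 200 ppm in 0.025% aqueous Tween 20, applied to both leaf sides of infested cabbage seedlings, four pots each.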

[2] = test system: Sweetpotato Whitefly-Crawler (Bemisia Tabaci); test: Insecticidal test for sweetpotato whitefly-crawler in foliar spray assay (col. BEMITA); type: in vivo; conditions: Bemisia tabaci, sweetpotato whitefly-crawler, read-out: BEMITA 200 ppm (Corrected % Control, rating)
How it was run: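 Percent control, Abbott-corrected against diluent-sprayed plants, from microscope counts of live nymphs 8-9 days after treatment. Test solution at 200 ppm in 0.025% aqueous Tween 20 applied to both leaf sides of egg-infested cotton after a 5-6 day hatch period (82° F, 50% RH).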

SMILES | pest or weed control at 200 ppm [1] [%] | pest or weed control at 200 ppm [2] [%]
CCN(C(=O)C(C)C)c1sc(-c2cncc(F)c2)nc1Cl [Compound 275] | 80 to 100 | 80 to 100
Cc1nc(-c2cccnc2)sc1N(C)C(=O)CNC(=O)OC(C)(C)C [Compound 276] | 80 to 100 | < 80
Cc1nc(-c2cccnc2)sc1N(C)C(=O)[C@H](Cc1ccccc1)NC(=O)OC(C)(C)C [Compound 280] | < 80 | < 80
CSCC[C@H](NC(=O)OC(C)(C)C)C(=O)N(C)c1sc(-c2cccnc2)nc1C [Compound 281] | < 80 | < 80
Cc1nc(-c2cccnc2)sc1N(C)C(=O)C(C)NC(=O)OC(C)(C)C (centres unmarked) [Compound 282] | 80 to 100 | 80 to 100
Cc1nc(-c2cccnc2)sc1N(C)C(=O)C(CC(C)C)NC(=O)OC(C)(C)C (centres unmarked) [Compound 283] | < 80 | < 80
CCCN(C(=O)OC(C)(C)C)c1sc(-c2cccnc2)nc1C [Compound 284] | 80 to 100 | 80 to 100
Cc1nc(-c2cncc(F)c2)sc1N(C)C(=O)CC(C)[S+](C)[O-] (centres unmarked) [Compound 285] | 80 to 100 | 80 to 100
CCCN(C(=O)C(C)CSC)c1sc(-c2cccnc2)nc1C (centres unmarked) [Compound 286] | 80 to 100 | 80 to 100
Cc1nc(-c2cccnc2)sc1N(C)C(=O)[C@H](CSCc1ccccc1)NC(=O)OC(C)(C)C [Compound 290] | < 80 | < 80
Cc1nc(-c2cccnc2)sc1N(C)C(=O)C(CCCCNC(=O)OCc1ccccc1)NC(=O)OC(C)(C)C (centres unmarked) [Compound 291] | < 80 | < 80
Cc1nc(-c2cccnc2)sc1N(C)C(=O)[C@@H]1CCCN1C(=O)OC(C)(C)C [Compound 292] | < 80 | 80 to 100
Cc1nc(-c2cccnc2)sc1N(C)C(=O)C(NC(=O)OC(C)(C)C)C(C)OCc1ccccc1 (centres unmarked) [Compound 293] | 80 to 100 | < 80
Cc1nc(-c2cccnc2)sc1N(C)C(=O)C(C)N(C)C(=O)OC(C)(C)C (centres unmarked) [Compound 294] | < 80 | < 80
CNC(C)C(=O)N(C)c1sc(-c2cccnc2)nc1C (centres unmarked) [Compound 295] | < 80 | 80 to 100
CSCC(C)C(=O)Nc1sc(-c2cncc(F)c2)nc1Br (centres unmarked) [Compound 299] | 80 to 100 | 80 to 100
CCN(C(=O)CC(C)SC)c1sc(-c2cncc(F)c2)nc1C (centres unmarked) [Compound 300] | 80 to 100 | < 80
Cc1nc(-c2cccnc2)sc1N(CCF)C(=O)OC(C)(C)C [Compound 301] | 80 to 100 | 80 to 100
COCC(C)(C)OC(=O)N(C)c1sc(-c2cccnc2)nc1C [Compound 302] | < 80 | 80 to 100
CCN(C(=O)OC(C)(C)C)c1sc(-c2cncc(F)c2)nc1Br [Compound 303] | < 80 | 80 to 100
CCN(C(=O)OC(C)(C)C)c1sc(-c2cccnc2)nc1Cl [Compound 304, (4-chloro-2-pyridin-3-yl-thiazol-5-yl)-ethyl-carbamic Acid Tert-Butyl Ester] | 80 to 100 | 80 to 100
CC[C@H](NC(=O)OC(C)(C)C)C(=O)N(C)c1sc(-c2cccnc2)nc1C [Compound 312] | 80 to 100 | 80 to 100
CCN(C(=O)CCSC)c1sc(-c2cccnc2)nc1Cl [Compound 313, N-(4-chloro-2-pyridin-3-yl-thiazol-5-yl)-N-ethyl-3-methylsulfanyl-propionamide] | 80 to 100 | 80 to 100
CCN(C(=O)CC[S+](C)[O-])c1sc(-c2cccnc2)nc1Cl (centres unmarked) [Compound 314] | 80 to 100 | 80 to 100
CCN(C(=O)CCS(C)(=O)=O)c1sc(-c2cccnc2)nc1Cl [Compound 315] | 80 to 100 | 80 to 100
CCSCCC(=O)N(CC)c1sc(-c2cncc(F)c2)nc1C [Compound 319] | 80 to 100 | 80 to 100
CCN(C(=O)CCSCc1ccccc1)c1sc(-c2cccnc2)nc1C [Compound 320] | 80 to 100 | < 80
CCN(C(=O)CCSc1ccccc1)c1sc(-c2cccnc2)nc1C [Compound 321] | 80 to 100 | < 80

From US8853246B2 (Dow AgroSciences LLC, priority 2009, dated 2014)
